The structures appear in SMILES notation.

For the assay, the target named is T1, FGFR3 enzyme (Millipore) (Homo sapiens, UniProt P22607).
T1 construct: purchased Millipore
T1 sequence (P22607 23-806): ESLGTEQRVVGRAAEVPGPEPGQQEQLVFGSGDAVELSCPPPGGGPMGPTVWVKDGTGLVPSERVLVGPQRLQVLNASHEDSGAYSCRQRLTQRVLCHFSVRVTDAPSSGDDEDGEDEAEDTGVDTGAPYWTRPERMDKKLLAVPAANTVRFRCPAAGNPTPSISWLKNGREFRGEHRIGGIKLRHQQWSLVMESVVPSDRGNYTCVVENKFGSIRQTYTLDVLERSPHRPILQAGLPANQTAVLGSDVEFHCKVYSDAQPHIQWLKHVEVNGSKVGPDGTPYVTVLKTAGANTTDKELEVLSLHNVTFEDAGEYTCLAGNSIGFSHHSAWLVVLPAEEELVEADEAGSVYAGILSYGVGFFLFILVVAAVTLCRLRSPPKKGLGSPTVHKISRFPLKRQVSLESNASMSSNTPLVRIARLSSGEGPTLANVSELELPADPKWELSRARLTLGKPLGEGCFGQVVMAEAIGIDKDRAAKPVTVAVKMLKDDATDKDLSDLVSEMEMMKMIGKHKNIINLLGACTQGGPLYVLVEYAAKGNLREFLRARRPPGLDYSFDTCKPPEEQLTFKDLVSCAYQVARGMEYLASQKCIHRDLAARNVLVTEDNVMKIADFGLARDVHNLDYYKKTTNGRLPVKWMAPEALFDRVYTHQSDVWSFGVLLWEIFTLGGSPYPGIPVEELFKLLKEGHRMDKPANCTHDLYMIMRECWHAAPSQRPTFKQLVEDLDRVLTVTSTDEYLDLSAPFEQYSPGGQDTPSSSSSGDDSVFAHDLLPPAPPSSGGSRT
Briefly: FGFR Enzymatic Assay (peptide phosphorylation, FRET). In kind it is biochemical. Particulars: pre-incubated for 4 hours; ATP 140 μM, peptide 500 nM. The protocol:
The inhibitor potency of the exemplified compounds was measured in an enzyme assay that measures peptide phosphorylation using FRET measurements to detect product formation. Inhibitors were serially diluted in DMSO and a volume of 0.5 μL was transferred to the wells of a 384-well plate. For FGFR3, a 10 μL volume of FGFR3 enzyme (Millipore) diluted in assay buffer (50 mM HEPES, 10 mM MgCl2, 1 mM EGTA, 0.01% Tween-20, 5 mM DTT, pH 7.5) was added to the plate and pre-incubated for a time between 5-10 minutes and up to 4 hours. Appropriate controls (enzyme blank and enzyme with no inhibitor) were included on the plate. The assay was initiated by the addition of a 10 μL solution containing biotinylated EQEDEPEGDYFEWLE peptide substrate (SEQ ID NO: 1) and ATP (final concentrations of 500 nM and 140 μM respectively) in assay buffer to the wells. The plate was incubated at 25° C. for 1 hr. The reactions were ended with the addition of 10 μL/well of quench solution (50 mM Tris, 150 mM NaCl, 0.5 mg/mL BSA, pH 7.8; 30 mM EDTA with Perkin Elmer Lance Reagents at 3.75 nM Eu-antibody PY20 and 180 nM APC-Streptavidin). The plate was allowed to equilibrate for ˜1 hr before scanning the wells on a PheraStar plate reader (BMG Labtech).
GraphPad prism3 was used to analyze the data. The IC50 values were derived by fitting the data to the equation for a sigmoidal dose-response with a variable slope. Y=Bottom+(Top-Bottom)/(1+10^((Log IC50−X)*HillSlope)) where X is the logarithm of concentration and Y is the response.
Table 1 provides IC50 data for compounds of the invention assayed in the FGFR Enzymatic Assay after dilution in assay buffer, added to the plate and pre-incubated for 4 hours.
As usually defined, the IC50 is the concentration needed to halve the response being measured. The low end stands for greater potency in that assay, the high end for weaker potency in that assay. With `COc1cc2[nH]nc(-c3cnn(Cc4ccccn4)c3)c2cc1C(=O)Nc1c(C)cccc1C` [Example 37, N-(2,6-Dimethylphenyl)-6-methoxy-3-(1-(pyridin-2-ylmethyl)-1H-pyrazol-4-yl)-1H-indazole-5-carboxamide], the concentration for half-maximal inhibition (IC50) is under 10 nM.

Take `COc1cc2[nH]nc(-c3cnn(C4CCN(C(C)=O)CC4)c3)c2cc1C(=O)Nc1c(C)cccc1C` [Example 25, 3-(1-(1-Acetylpiperidin-4-yl)-1H-pyrazol-4-yl)-N-(2,6-dimethylphenyl)-6-methoxy-1H-indazole-5-carboxamide]: the IC50 was under 10 nM.

The molecule `COc1cc2[nH]nc(-c3cnn(C)c3)c2cc1C(=O)Nc1c(C)cc(F)cc1C` [Example 5, N-(4-Fluoro-2,6-dimethylphenyl)-6-methoxy-3-(1-methyl-1H-pyrazol-4-yl)-1H-indazole-5-carboxamide] gave an IC50 of under 10 nM.

`COc1cc2[nH]nc(-c3cnn(CCN4CCOCC4)c3)c2cc1C(=O)Nc1c(C)cccc1C` [Example 40, N-(2,6-Dimethylphenyl)-6-methoxy-3-(1-(2-morpholinoethyl)-1H-pyrazol-4-yl)-1H-indazole-5-carboxamide] had an IC50 of 10 to 30 nM. On to `COc1cc2[nH]nc(-c3ccc(N4CCN(C(C)=O)CC4)cc3)c2cc1C(=O)Nc1c(C)cccc1C` [Example 20, 3-(4-(4-Acetylpiperazin-1-yl)phenyl)-N-(2,6-dimethylphenyl)-6-methoxy-1H-indazole-5-carboxamide], for which the IC50 was under 10 nM. `COc1cc2[nH]nc(-c3cnn(C)c3)c2cc1C(=O)Nc1c(C)cccc1C` [Example 1, N-(2,6-Dimethylphenyl)-6-methoxy-3-(1-methyl-1H-pyrazol-4-yl)-1H-indazole-5-carboxamide] displayed a 50% inhibitory concentration (IC50) of under 10 nM.

Molecule `COc1cc2[nH]nc(-c3cnn(C)c3)c2cc1C(=O)Nc1c(C)cccc1OC` [Example 9, 6-Methoxy-N-(2-methoxy-6-methylphenyl)-3-(1-methyl-1H-pyrazol-4-yl)-1H-indazole-5-carboxamide] yielded an IC50 of 30 to 200 nM. The value for `CCNC(=O)N1CC(n2cc(-c3n[nH]c4cc(OC)c(C(=O)Nc5c(C)cccc5C)cc34)cn2)C1` [Example 30, N-(2,6-Dimethylphenyl)-3-(1-(1-(ethylcarbamoyl)azetidin-3-yl)-1H-pyrazol-4-yl)-6-methoxy-1H-indazole-5-carboxamide] was under 10 nM; that for `Cc1cccc(C)c1NC(=O)c1cc2c(-c3cnn(C)c3)n[nH]c2cc1Cl` [Example 13, 6-Chloro-N-(2,6-dimethylphenyl)-3-(1-methyl-1H-pyrazol-4-yl)-1H-indazole-5-carboxamide] was 30 to 200 nM.

Molecule `CCOC(=O)N1CC(n2cc(-c3n[nH]c4cc(OC)c(C(=O)Nc5c(C)cccc5C)cc34)cn2)C1` [Example 23, Ethyl 3-(4-(5-((2,6-Dimethylphenyl)carbamoyl)-6-methoxy-1H-indazol-3-yl)-1H-pyrazol-1-yl)azetidine-1-carboxylate] had an IC50 of under 10 nM.

Molecule `CCc1cccc(CC)c1NC(=O)c1cc2c(-c3cnn(C)c3)n[nH]c2cc1OC` [Example 7, N-(2,6-Diethylphenyl)-6-methoxy-3-(1-methyl-1H-pyrazol-4-yl)-1H-indazole-5-carboxamide] displayed an IC50 of under 10 nM. The value for `COc1cc2[nH]nc(-c3cnn(C4CC4)c3)c2cc1C(=O)Nc1c(C)cccc1C` [Example 44, 3-(1-Cyclopropyl-1H-pyrazol-4-yl)-N-(2,6-dimethylphenyl)-6-methoxy-1H-indazole-5-carboxamide] was under 10 nM; that for `COc1cc2[nH]nc(-c3cnn(C)c3)c2cc1C(=O)Nc1c(C)cccc1Cl` [Example 3, N-(2-Chloro-6-methylphenyl)-6-methoxy-3-(1-methyl-1H-pyrazol-4-yl)-1H-indazole-5-carboxamide] was under 10 nM. As to `COc1cc2[nH]nc(-c3cnn(C)c3)c2cc1C(=O)Nc1c(C)cc(NS(C)(=O)=O)cc1C` [Example 27, N-(2,6-Dimethyl-4-(methylsulfonamido)phenyl)-6-methoxy-3-(1-methyl-1H-pyrazol-4-yl)-1H-indazole-5-carboxamide], the IC50 is 10 to 30 nM. The value for `COc1cc2[nH]nc(-c3cnn(CCO)c3)c2cc1C(=O)Nc1c(C)cccc1C` [Example 38, N-(2,6-Dimethylphenyl)-3-(1-(2-hydroxyethyl)-1H-pyrazol-4-yl)-6-methoxy-1H-indazole-5-carboxamide] was 10 to 30 nM.

The values above are taken from patent US12122767B2, “Bicyclic heterocycles as FGFR inhibitors” (Incyte Corporation, priority 2019, dated 2024).
